Like-named read-outs stand apart in the source and are kept apart here.
Target: T1, BRD9 (Homo sapiens, UniProt Q9H8M2)
T1 sequence (Q9H8M2 1-597): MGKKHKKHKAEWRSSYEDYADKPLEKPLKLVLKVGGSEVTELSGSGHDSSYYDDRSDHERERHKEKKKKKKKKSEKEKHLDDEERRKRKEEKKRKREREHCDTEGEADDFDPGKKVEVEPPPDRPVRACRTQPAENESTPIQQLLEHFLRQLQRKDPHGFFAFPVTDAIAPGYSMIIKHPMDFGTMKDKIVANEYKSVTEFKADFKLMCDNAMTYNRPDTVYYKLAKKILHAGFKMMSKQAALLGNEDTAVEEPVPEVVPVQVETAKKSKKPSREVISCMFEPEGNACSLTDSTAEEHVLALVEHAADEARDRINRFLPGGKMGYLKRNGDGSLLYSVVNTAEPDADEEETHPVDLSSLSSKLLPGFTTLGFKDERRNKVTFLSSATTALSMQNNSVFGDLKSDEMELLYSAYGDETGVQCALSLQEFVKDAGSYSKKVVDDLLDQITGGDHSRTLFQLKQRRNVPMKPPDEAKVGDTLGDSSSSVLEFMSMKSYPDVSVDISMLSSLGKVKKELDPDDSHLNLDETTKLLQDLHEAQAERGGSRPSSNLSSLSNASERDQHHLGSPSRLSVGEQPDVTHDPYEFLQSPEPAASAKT
Experiment: Degradation of BRD9 (IF), immunofluorescence in MV4-11 cells, 24 hours (Assay Protocol 2)
Assay type: cell-based
Set-up: A suspension of MV4-11 cells (ATCC CRL-9591) was prepared; host or cells: MV4-11
Settings: BRD9 degradation
In short: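 MV4-11 cells treated with compound 24 h at 37° C., then fixed, permeabilised and immunostained for BRD9 (anti-BRD9 E4Q3F, Alexa 647 secondary, Hoechst counterstain). High-content imaging quantified nuclear BRD9 signal; % BRD9 remaining normalised to DMSO and 100 nM CFT-8634 controls.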

[1] = Assay protocol 2, read-out: DC50
[2] = MV4-11, Assay protocol 2, read-out: Dmax
[3] = MV4-11, Table 4, determined according to Assay Protocol 2, read-out: Dmax^2
[4] = Table 4, determined according to Assay Protocol 2, read-out: DC50^2

Compound	DC50 [1] [nM]	Dmax [2] [%]	Dmax [3] [%]	DC50 [4] [nM]
COc1cc(-c2cn(C)c(=O)c(C)c2C)cc(OC)c1CN1CCCN(Cc2ccc3c(c2)[C@@H](C)N(C(=O)/C(C#N)=C/C(C)(C)C)CC3)CC1 (single isomer, unassigned) [Compound C107]	10 to 25	40 to 70	–	–
COc1cc(-c2cn(C)c(=O)c(C)c2C)cc(OC)c1CN1CCC(Oc2cccc3c2CCN(C(=O)/C(C#N)=C/C(C)(C)C)C3C)C1 (stereo in doubt) [Compound B134, (E)-2-(5-(((S)-1-(2,6-dimethoxy-4-(1,4,5-trimethyl-6-oxo-1,6-dihydropyridin-3-yl)benzyl)pyrrolidin-3-yl)oxy)-1-methyl-1,2,3,4-tetrahydroisoquinoline-2-carbonyl)-4,4-dimethylpent-2-enenitrile]	25 to 1000	40 to 70	–	–
COc1cc(-c2cn(C)c(=O)c(C)c2C)cc(OC)c1C(=O)N1CCN(C(=O)/C(C#N)=C/C(C)(C)C)CC1 [BRD9s, (E/Z)-2-(4-(2,6-dimethoxy-4-(1,4,5-trimethyl-6-oxo-1,6-dihydropyridin-3-yl)benzoyl)piperazine-1-carbonyl)-4,4-dimethylpent-2-enenitrile]	–	–	50 to 70	< 25
COc1cc(-c2cn(C)c(=O)c(C)c2C)cc(OC)c1C(=O)N1CCCN(C(=O)/C(C#N)=C/C(C)(C)C)CC1 [BRD9v, (E/Z)-2-(4-(2,6-dimethoxy-4-(1,4,5-trimethyl-6-oxo-1,6-dihydropyridin-3-yl)benzoyl)-1,4-diazepane-1-carbonyl)-4,4-dimethylpent-2-enenitrile]	–	–	50 to 70	< 25
COc1cc(-c2cn(C)c(=O)c(C)c2C)cc(OC)c1CN(C)C1CCN(C(=O)/C(C#N)=C/c2cccc(Br)n2)CC1 [BRD9z, (E/Z)-3-(6-bromopyridin-2-yl)-2-(4-((2,6-dimethoxy-4-(1,4,5-trimethyl-6-oxo-1,6-dihydropyridin-3-yl)benzyl)(methyl)amino)piperidine-1-carbonyl)acrylonitrile]	–	–	> 70	> 200
COc1cc(-c2cn(C)c(=O)c(C)c2C)cc(OC)c1CN1CCC2(CC1)CCN(c1cccc3c1CCN(C(=O)/C(C#N)=C/C(C)(C)C)C3C)C2 (stereo not drawn) [Compound B63, (E2Z)-2-(5-(8-(2,6-dimethoxy-4-(1,4,5-trimethyl-6-oxo-1,6-dihydropyridin-3-yl)benzyl)-2,8-diazaspiro[4.5]decan-2-yl)-1-methyl-1,2,3,4-tetrahydroisoquinoline-2-carbonyl)-4,4-dimethylpent-2-enenitrile]	1.25 to 10	40 to 70	–	–
COc1cc(-c2cn(C)c(=O)c3[nH]ncc23)cc(OC)c1CN1CCN(C(=O)/C(C#N)=C/C(C)(C)C)CC1 [Compound B215, (E/Z)-2-(4-(2,6-dimethoxy-4-(6-methyl-7-oxo-6,7-dihydro-1H-pyrazolo[3,4-c]pyridin-4-yl)benzyl)piperazine-1-carbonyl)-4,4-dimethylpent-2-enenitrile]	25 to 1000	40 to 70	–	–
COc1cc(-c2cn(C)c(=O)c(C)c2C)cc(OC)c1CN1CCC(CN(C)c2ccc3c(c2)C(C)N(C(=O)/C(C#N)=C/C(C)(C)C)CC3)CC1 (stereo not drawn) [Compound C46]	1.25 to 10	40 to 70	–	–
COc1cc(-c2cn(C)c(=O)c(C)c2C)cc(OC)c1CN1CCC2(CC1)CCN(c1cccc3c1CCN(C(=O)/C(C#N)=C/C(C)(C)C)[C@@H]3C)C2 [Compound C47]	1.25 to 10	> 75	–	–
COc1cc(-c2cn(C)c(=O)c(C)c2C)ccc1OC1CCC(Cc2cccc3c2CCN(C(=O)/C(C#N)=C/C(C)(C)N2CCN(C4COC4)CC2)C3C)CC1 (stereo not drawn) [Compound C51]	25 to 1000	40 to 70	–	–
COc1cc(-c2cn(C)c(=O)c(C)c2C)cc(OC)c1CN1CCC(Cc2ccc3c(c2)C(C)N(C(=O)/C(C#N)=C/C(C)(C)C)CC3)CC1(C)C (stereo not drawn) [Compound C53]	25 to 1000	40 to 70	–	–
COc1cc(-c2cn(C)c(=O)c(C)c2C)cc(OC)c1CN1CC(=O)N(Cc2cccc3c2CCN(C(=O)/C(C#N)=C/C(C)(C)C)C3C)C(C)(C)C1 (stereo not drawn) [Compound C55]	25 to 1000	> 75	–	–
COc1cc(-c2cn(C)c(=O)c(C)c2C)ccc1OC1CCN(Cc2cccc3c2CCN(C(=O)/C(C#N)=C\C(C)(C)C)C3C)C(C)(C)C1 (stereo not drawn) [Compound C58]	10 to 25	> 75	–	–

Other lines, results leading:

DC50 [1] [nM]	Dmax [2] [%]	Dmax [3] [%]	DC50 [4] [nM]	Compound
25 to 1000	40 to 70	–	–	CC[C@H]1c2cccc(CN3CCN(Cc4c(OC)cc(-c5cn(C)c(=O)c(C)c5C)cc4OC)C4(CC4)C3)c2CCN1C(=O)/C(C#N)=C/C(C)(C)CF (single isomer, unassigned) [Compound C104, (E/Z)-2-(5-((4-(2,6-dimethoxy-4-(1,4,5-trimethyl-6-oxo-1,6-dihydropyridin-3-yl)benzyl)-4,7-diazaspiro[2.5]octan-7-yl)methyl)-1-ethyl-1,2,3,4-tetrahydroisoquinoline-2-carbonyl)-6-fluoro-4,4-dimethylpent-2-enenitrile]
< 1.25	> 75	–	–	CC[C@@H]1c2cccc(CN3CCN(Cc4c(OC)cc(-c5cn(C)c(=O)c(C)c5C)cc4OC)C4(CC4)C3)c2CCN1C(=O)/C(C#N)=C/C(C)(C)CF (single isomer, unassigned) [Compound C105, (E/Z)-2-(5-((4-(2,6-dimethoxy-4-(1,4,5-trimethyl-6-oxo-1,6-dihydropyridin-3-yl)benzyl)-4,7-diazaspiro[2.5]octan-7-yl)methyl)-1-ethyl-1,2,3,4-tetrahydroisoquinoline-2-carbonyl)-6-fluoro-4,4-dimethylpent-2-enenitrile]
–	–	> 70	–	COc1cc(-c2cn(C)c(=O)c(C)c2C)cc(OC)c1CN(C)C1CCN(C(=O)/C(C#N)=C/c2cccc(C(F)(F)F)n2)CC1 [BRD9aa, (E/Z)-2-(4-((2,6-dimethoxy-4-(1,4,5-trimethyl-6-oxo-1,6-dihydropyridin-3-yl)benzyl)(methyl)amino)piperidine-1-carbonyl)-3-(6-(trifluoromethyl)pyridin-2-yl)acrylonitrile]
–	–	> 70	> 200	COc1cc(-c2cn(C)c(=O)c(C)c2C)cc(OC)c1CN1CCC2(CC1)CCN(C(=O)/C(C#N)=C/c1cccc(Br)n1)CC2 [BRD9r, (E/Z)-3-(6-bromopyridin-2-yl)-2-(9-(2,6-dimethoxy-4-(1,4,5-trimethyl-6-oxo-1,6-dihydropyridin-3-yl)benzyl)-3,9-diazaspiro[5.5]undecane-3-carbonyl)acrylonitrile]
–	–	50 to 70	> 200	COc1cc(-c2cn(C)c(=O)c(C)c2C)cc(OC)c1CN1CCN(C(=O)[C@H]2CN(C(=O)/C(C#N)=C/C(C)(C)C)C[C@@H]2C)CC1 [Compound B214]
< 1.25	> 75	–	–	COc1cc(-c2cn(C)c(=O)c(C)c2C)cc(OC)c1CN1CCN(Cc2ccc3c(c2)CN(C(=O)/C(C#N)=C/C(C)(C)C)CC3)C2(CC2)C1 [Compound C1, (E/Z)-2-(7-((7-(2,6-dimethoxy-4-(1,4,5-trimethyl-6-oxo-1,6-dihydropyridin-3-yl)benzyl)-4,7-diazaspiro[2.5]octan-4-yl)methyl)-1,2,3,4-tetrahydroisoquinoline-2-carbonyl)-4,4-dimethylpent-2-enenitrile]
1.25 to 10	> 75	–	–	COc1cc(-c2cn(C)c(=O)c(C)c2C)cc(OC)c1CN1CCN(Cc2cccc3c2CCN(C(=O)/C(C#N)=C/C(C)(C)C)C3)C2(CC2)C1 [Compound C2, (E/Z)-2-(5-((7-(2,6-dimethoxy-4-(1,4,5-trimethyl-6-oxo-1,6-dihydropyridin-3-yl)benzyl)-4,7-diazaspiro[2.5]octan-4-yl)methyl)-1,2,3,4-tetrahydroisoquinoline-2-carbonyl)-4,4-dimethylpent-2-enenitrile]
1.25 to 10	40 to 70	–	–	COc1cc(-c2cn(C)c(=O)c(C)c2C)cc(OC)c1CN1CCC2(CCN(c3cccc4c3CCN(C(=O)/C(C#N)=C/C(C)(C)C)C4C)C2)C1 (stereo not drawn) [Compound C42, (E2Z)-2-(5-(7-(2,6-dimethoxy-4-(1,4,5-trimethyl-6-oxo-1,6-dihydropyridin-3-yl)benzyl)-2,7-diazaspiro[4.4]nonan-2-yl)-1-methyl-1,2,3,4-tetrahydroisoquinolin-2-carbonyl)-4,4-dimethylpent-2-enenitrile]
–	40 to 70	–	–	COc1cc(-c2cn(C)c(=O)c(C)c2C)cc(OC)c1CN1CC(Cc2cccc3c2CCN(C(=O)/C(C#N)=C/C(C)(C)C)C3C)C1 (stereo not drawn) [Compound C49]
25 to 1000	70 to 75	–	–	COc1cc(-c2cn(C)c(=O)c(C)c2C)ccc1OC1CCC(Cc2cccc3c2CCN(C(=O)/C(C#N)=C/C(C)(C)N2CCN(C)CC2)C3C)CC1 (stereo not drawn) [Compound C50]
25 to 1000	40 to 70	–	–	COc1cc(-c2cn(C)c(=O)c(C)c2C)cc(OC)c1CN1CCC2(CCN(c3ccc4c(c3)[C@H](C)N(C(=O)/C(C#N)=C/C(C)(C)C)CC4)CC2)C1 [Compound C54]
25 to 1000	> 75	–	–	COc1cc(-c2cn(C)c(=O)c(C)c2C)ccc1O[C@H]1CC[C@@H](Nc2cccc3c2CCN(C(=O)/C(C#N)=C/C(C)(C)C)C3C)CC1 (stereo partly drawn) [Compound C56]

— patent US20260092061A1, “COMPOUNDS FOR TARGETED PROTEIN DEGRADATION” (Amphista Therapeutics Limited, priority 2022, published 2026)
